Measured values published in PubChem BioAssay (NCI).
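Method: 48-hour compound exposure of cells in 96-well plates, five concentrations, linear interpolation of endpoints. Definition used: TGI = concentration required for complete inhibition of growth.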

Columns and labels:
Experiment in all cases: NCI tumour cell line growth inhibition, 48 h
[1] = tested on: NCI-H522 lung
[2] = tested on: UACC-257 melanoma
[3] = tested on: MOLT-4 leukemia
[4] = tested on: OVCAR-8 ovarian
[5] = tested on: CAKI-1 renal
[6] = tested on: HCT-116 colon
[7] = tested on: SNB-19 CNS
[8] = tested on: SK-MEL-28 melanoma
[9] = tested on: XF 498 CNS
[10] = tested on: SNB-78 CNS
[11] = tested on: EKVX NSCLC
[12] = tested on: SF-268 CNS
[13] = tested on: RXF 393 renal
[14] = tested on: M14 melanoma
[15] = tested on: TK-10 renal
[16] = tested on: SK-MEL-2 melanoma
[17] = tested on: DLD-1 colon
[18] = tested on: CCRF-CEM leukemia
[19] = tested on: SN12C renal
[20] = tested on: HOP-92 NSCLC
[21] = tested on: OVCAR-4 ovarian
[22] = tested on: SK-MEL-5 melanoma
[23] = tested on: HT29 colon
[24] = tested on: SF-295 CNS
[25] = tested on: COLO 205 colon
[26] = tested on: KM20L2 colon
[27] = tested on: LOX IMVI melanoma
[28] = tested on: DMS 114 small cell lung
[29] = tested on: SK-OV-3 ovarian
[30] = tested on: HL-60(TB) leukemia
[31] = tested on: UACC-62 melanoma
[32] = tested on: OVCAR-3 ovarian
[33] = tested on: HCT-15 colon
[34] = tested on: A549 NSCLC
[35] = tested on: NCI-H226 lung
[36] = tested on: U251 CNS
[37] = tested on: 786-0 renal
[38] = tested on: SF-539 CNS
[39] = tested on: K-562 leukemia
[40] = tested on: ACHN renal
[41] = tested on: HOP-62 NSCLC
[42] = tested on: SW-620 colon
[43] = tested on: KM12 colon
[44] = tested on: UO-31 renal
[45] = tested on: OVCAR-5 ovarian
[46] = tested on: DMS 273 small cell lung
[47] = tested on: HCC-2998 colon
[48] = tested on: NCI-H23 lung
[49] = tested on: SR leukemia
[50] = tested on: M19-MEL melanoma
[51] = tested on: RPMI-8226 leukemia
[52] = tested on: MALME-3M melanoma
[53] = tested on: NCI-H460 lung
[54] = tested on: SNB-75 CNS
[55] = tested on: LXFL 529 NSCLC
[56] = tested on: A498 renal
[57] = tested on: IGROV1 ovarian

SMILES: N#Cc1ccc(Nc2cnc3cc(N)ccc3n2)cc1
- TGI [1]: > 100 µM
- TGI [2]: > 100 µM
- TGI [3]: > 100 µM
- TGI [4]: > 100 µM
- TGI [5]: > 100 µM
- TGI [6]: > 100 µM
- TGI [7]: > 100 µM
- TGI [8]: > 100 µM
- TGI [9]: > 100 µM
- TGI [10]: > 100 µM
- TGI [11]: > 100 µM
- TGI [12]: > 100 µM
- TGI [13]: > 100 µM
- TGI [14]: > 100 µM
- TGI [15]: > 100 µM
- TGI [16]: > 100 µM
- TGI [17]: > 100 µM
- TGI [18]: > 100 µM
- TGI [19]: > 100 µM
- TGI [20]: > 100 µM
- TGI [21]: > 100 µM
- TGI [22]: > 100 µM
- TGI [23]: > 100 µM
- TGI [24]: > 100 µM
- TGI [25]: > 100 µM
- TGI [26]: > 100 µM
- TGI [27]: > 100 µM
- TGI [28]: > 100 µM
- TGI [29]: > 100 µM
- TGI [30]: > 100 µM
- TGI [31]: > 100 µM
- TGI [32]: > 100 µM
- TGI [33]: > 100 µM
- TGI [34]: > 100 µM
- TGI [35]: > 100 µM
- TGI [36]: > 100 µM
- TGI [37]: > 100 µM
- TGI [38]: > 100 µM
- TGI [39]: > 100 µM
- TGI [40]: > 100 µM
- TGI [41]: > 100 µM
- TGI [42]: > 100 µM
- TGI [43]: > 100 µM
- TGI [44]: > 100 µM
- TGI [45]: > 100 µM
- TGI [46]: > 100 µM
- TGI [47]: > 100 µM
- TGI [48]: > 100 µM
- TGI [49]: > 100 µM
- TGI [50]: > 100 µM
- TGI [51]: > 100 µM
- TGI [52]: > 100 µM
- TGI [53]: > 100 µM
- TGI [54]: > 100 µM
- TGI [55]: > 100 µM

SMILES: O=S1c2ccccc2N=C(c2ccc3ccccc3c2)CC1c1ccccc1 (configuration not stated)
- TGI [1]: 34.9 µM
- TGI [2]: > 100 µM
- TGI [3]: > 100 µM
- TGI [4]: 30 µM
- TGI [5]: > 100 µM
- TGI [6]: 33.6 µM
- TGI [7]: 34.9 µM
- TGI [8]: > 100 µM
- TGI [9]: > 100 µM
- TGI [10]: > 100 µM
- TGI [11]: 91.5 µM
- TGI [12]: 37.2 µM
- TGI [14]: > 100 µM
- TGI [15]: 68.7 µM
- TGI [16]: 92.3 µM
- TGI [17]: 48.4 µM
- TGI [18]: 81.2 µM
- TGI [19]: 73.9 µM
- TGI [20]: > 100 µM
- TGI [21]: 56.1 µM
- TGI [22]: > 100 µM
- TGI [23]: 35.1 µM
- TGI [24]: 36.2 µM
- TGI [25]: 40 µM
- TGI [26]: 35.7 µM
- TGI [27]: 36.5 µM
- TGI [29]: 92.6 µM
- TGI [30]: 58.1 µM
- TGI [31]: > 100 µM
- TGI [33]: 32.5 µM
- TGI [56]: 35.9 µM
- TGI [34]: 41.3 µM
- TGI [35]: 78.9 µM
- TGI [36]: 32.6 µM
- TGI [38]: 37.7 µM
- TGI [39]: 62.1 µM
- TGI [40]: 31.8 µM
- TGI [41]: > 100 µM
- TGI [42]: 29.3 µM
- TGI [43]: 28.8 µM
- TGI [44]: 32.4 µM
- TGI [45]: 42.9 µM
- TGI [46]: > 100 µM
- TGI [47]: 36.6 µM
- TGI [48]: 39 µM
- TGI [57]: 40.3 µM
- TGI [49]: 63.8 µM
- TGI [50]: 34.9 µM
- TGI [51]: 94.4 µM
- TGI [53]: 41 µM
- TGI [54]: 38.5 µM
- TGI [55]: 29.8 µM
